Experimental findings from patent US11104670B2, “4-pyrimidin-5-ylmethyl-morpholine derivatives and the use thereof as medicament” (Boehringer Ingelheim International GmbH, priority 2018, dated 2021) are described below.

What is called inhibition is the change of the read-out against control, counted positive when it falls. What is called half-life is the time in which the quantity being followed falls by half.

The structures appear in SMILES notation.

Data set [1] addresses Nav1.6 channel (Homo sapiens (Human), UniProt Q9UQD0). Description: Nav1.6 inhibition, IonWorks Quattro electrophysiology. Format: cell-based. The conditions noted are these: for inhibition at 1 µM / inhibition at 5 µM: normalized to vehicle (0%) and maximal inhibition control (100%). As for the experimental part: Ion Works Quattro electrophysiological platform
The compounds were prepared in DMSO at 300× the final assay concentrations of 1 and 5 μM.
The 300× DMSO stock solutions were transferred into assay plates where 2 μl per well of each 300× stock solution were placed. All assay plates were stored at −80° C. until the day of assay.
On the day of the assay, the appropriate assay plate was thawed at room temperature, centrifuged, and 198 μl of external recording solution was added and mixed thoroughly. This provided a 1:100 dilution. A further 1:3 dilution occurred upon addition to the cells in the IonWorks Quattro electrophysiological platform, giving a 1:300 dilution in total.
On each assay plate, at least 8 wells were reserved for vehicle control (0.3% DMSO) and at least 8 wells for each positive control specific to the cell line tested. The positive controls were tested at a maximal blocking and an approximate IC50 concentration. As positive control Lidocaine at concentrations of 30 and 1000 μM was used.
Amphotericin B was used to obtain electrical access to the cell interior at a final concentration of 200 μg/ml in internal recording solution.
State-dependent inhibition: Sodium channels when held at depolarized potential or long test pulse, the channels open and inactivate and then stay inactivated until the membrane potential is stepped back to hyperpolarized potentials, when the inactivated channels recover from inactivation into closed state.
Cells were held at −120 mV. In order to completely inactivate the sodium channels (pulse 1), the cells were pulsed to +0 mV for 2500 ms and stepped back to −120 mV for 10 ms (to completely recover from inactivation, however channels that had drugs bound to them will not recover from inactivation) before stepping to +0 mV for 20 ms (pulse 2).
Both the positive and vehicle control data associated with each cell line assayed are shown below as an example. The mean is shown for each positive and negative control as solid symbol with the total number of individual well replicates given next to the solid symbol. In addition, the individual data of each well are shown on the graph as open symbols so that the variation about the mean value can be readily assessed.
In FIG. 2, a Post/Pre value of 1.0 corresponds to 0% inhibition, a Post/Pre value of 0.0 corresponds to 100% inhibition.
Tables 3 and 4 show the normalized percentage inhibition of Nav1.6 channel. […] (see also the figure Assay Control Results above).

Data set [2] in a line: Metabolic stability in pooled human liver microsomes. In kind it is in vitro ADME. Conditions: pH 7.6, 1 μM compound, 1 mg/mL microsomal protein, 37° C., NADPH, read-out: Half-life - t½ human liver microsomes. The source says: Stability in human liver microsomes refers to the susceptibility of compounds to biotransformation in the context of selecting and/or designing drugs with favorable pharmacokinetic properties. The primary site of metabolism for many drugs is the liver. Human liver microsomes contain the cytochrome P450s (CYPs), and thus represent a model system for studying drug metabolism in vitro. Enhanced stability in human liver microsomes is associated with several advantages, including increased bioavailability and adequate half-life, which can enable lower and less frequent dosing of patients. Thus, enhanced stability in human liver microsomes is a favorable characteristic for compounds that are to be used for drugs.
The metabolic degradation of the test compound was assayed at 37° C. with pooled human liver microsomes. The final incubation volume of 60 μl per time point contains TRIS buffer pH 7.6 at room temperature (0.1 M), magnesium chloride (5 mM aqueous solution), microsomal protein (1 mg/mL for human) and the test compound at a final concentration of 1 μM. Following a short preincubation period at 37° C., the reactions were initiated by addition of betanicotinamide adenine dinucleotide phosphate, reduced form (NADPH, 1 mM), and terminated by transferring an aliquot into acetonitril after different time points. After centrifugation (10000 g, 5 min), an aliquot of the supernatant was assayed by HPLC-MS/MS as described above for the MDCK assay P-gp for the amount of parent compound. The half-life was determined by the slope of the semi-logarithmic plot of the concentration-time profile.
(In general: Liver microsomes are a subcellular fraction often used to study metabolism.)

Nav1.6 channel, sequence (Q9UQD0 whole entry): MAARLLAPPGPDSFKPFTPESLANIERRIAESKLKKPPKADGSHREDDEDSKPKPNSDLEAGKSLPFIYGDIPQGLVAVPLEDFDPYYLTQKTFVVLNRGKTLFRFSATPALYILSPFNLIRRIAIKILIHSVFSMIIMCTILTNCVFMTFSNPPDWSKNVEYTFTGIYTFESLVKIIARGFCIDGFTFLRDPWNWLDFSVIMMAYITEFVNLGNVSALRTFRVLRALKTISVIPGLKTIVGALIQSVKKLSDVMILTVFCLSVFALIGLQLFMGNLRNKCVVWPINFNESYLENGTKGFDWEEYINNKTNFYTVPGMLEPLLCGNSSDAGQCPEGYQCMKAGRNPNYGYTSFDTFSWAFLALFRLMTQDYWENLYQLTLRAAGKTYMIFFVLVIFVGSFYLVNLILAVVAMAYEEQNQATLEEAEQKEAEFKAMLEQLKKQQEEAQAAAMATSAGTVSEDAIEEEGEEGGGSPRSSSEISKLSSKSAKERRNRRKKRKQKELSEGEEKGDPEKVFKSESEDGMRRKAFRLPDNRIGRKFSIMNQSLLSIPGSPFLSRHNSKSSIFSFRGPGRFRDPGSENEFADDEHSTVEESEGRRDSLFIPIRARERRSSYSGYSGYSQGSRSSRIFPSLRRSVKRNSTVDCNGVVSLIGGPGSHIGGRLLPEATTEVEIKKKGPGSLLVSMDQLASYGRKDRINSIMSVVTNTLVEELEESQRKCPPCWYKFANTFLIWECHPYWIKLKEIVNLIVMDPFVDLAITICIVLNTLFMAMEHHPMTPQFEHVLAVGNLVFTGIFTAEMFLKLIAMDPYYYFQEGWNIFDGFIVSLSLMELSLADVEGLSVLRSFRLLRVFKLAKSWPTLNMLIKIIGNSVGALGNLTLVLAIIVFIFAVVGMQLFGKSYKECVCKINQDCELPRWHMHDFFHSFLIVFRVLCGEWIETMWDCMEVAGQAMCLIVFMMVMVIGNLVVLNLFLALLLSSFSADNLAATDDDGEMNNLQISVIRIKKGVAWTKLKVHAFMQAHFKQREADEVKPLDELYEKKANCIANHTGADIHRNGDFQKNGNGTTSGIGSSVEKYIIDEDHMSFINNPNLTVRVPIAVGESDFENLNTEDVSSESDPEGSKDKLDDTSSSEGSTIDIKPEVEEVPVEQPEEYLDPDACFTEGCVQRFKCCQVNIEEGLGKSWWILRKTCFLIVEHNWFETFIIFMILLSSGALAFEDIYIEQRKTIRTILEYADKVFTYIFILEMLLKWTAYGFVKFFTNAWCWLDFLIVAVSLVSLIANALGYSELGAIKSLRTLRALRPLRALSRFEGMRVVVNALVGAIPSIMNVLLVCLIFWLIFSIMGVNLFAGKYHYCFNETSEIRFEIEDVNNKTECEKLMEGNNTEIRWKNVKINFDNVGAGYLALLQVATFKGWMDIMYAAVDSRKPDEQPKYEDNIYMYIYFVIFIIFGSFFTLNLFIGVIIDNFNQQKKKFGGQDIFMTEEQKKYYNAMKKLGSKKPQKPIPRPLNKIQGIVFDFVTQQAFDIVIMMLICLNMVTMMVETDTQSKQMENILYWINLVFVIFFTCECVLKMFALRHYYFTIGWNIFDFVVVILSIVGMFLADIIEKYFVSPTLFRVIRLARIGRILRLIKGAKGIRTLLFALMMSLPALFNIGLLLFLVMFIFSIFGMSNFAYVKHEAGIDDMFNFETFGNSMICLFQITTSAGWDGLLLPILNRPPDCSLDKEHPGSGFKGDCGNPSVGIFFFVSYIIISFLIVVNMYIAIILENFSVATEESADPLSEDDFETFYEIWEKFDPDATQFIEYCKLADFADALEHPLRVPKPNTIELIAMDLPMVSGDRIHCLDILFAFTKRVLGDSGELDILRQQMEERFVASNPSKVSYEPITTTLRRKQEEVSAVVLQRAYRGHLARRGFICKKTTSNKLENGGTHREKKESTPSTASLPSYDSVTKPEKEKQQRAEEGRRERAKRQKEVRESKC

In the case of `CNC(=O)[C@@H]1CN(Cc2cnc(Oc3ccc(C)cc3F)nc2)CCO1` [Example 20], in data set [1], the inhibition at 1 µM was -8.9% and the inhibition at 5 µM was -10.1%. Further, the half-life at 1 µM in data set [2] is over 2.17 h.
On the same counts, the results for `CNC(=O)[C@@H]1CN(Cc2cnc(Oc3ccccc3Cl)nc2)CCO1` [Example 26] are 12.8%, 5.7% and over 2.17 h.
On the same counts, the results for `CNC(=O)[C@@H]1CN(Cc2cnc(Oc3ccc(F)cc3F)nc2)CCO1` [Example 23] are 0.1%, 2.9% and over 2.17 h.
Turning to `CNC(=O)[C@@H]1CN(Cc2cnc(Oc3ccc(Cl)cc3)nc2)CCO1` [Example 25], in data set [1], the inhibition at 1 µM was -11.8% and the inhibition at 5 µM was -18.8%. Also, the “inhibition of the Nav 1.6 channel (in words)” value in data set [1] (at 5 μM) is on record as “not showing any significant inhibition”. The half-life at 1 µM in data set [2] is over 2.17 h.
Regarding `CNC(=O)[C@@H]1CN(Cc2cnc(Oc3ccc(C)cc3C)nc2)CCO1` [Example 22], in data set [1], the inhibition at 1 µM came out at 3.8% and the inhibition at 5 µM is -10.4%. Moreover, the half-life at 1 µM in data set [2] is over 2.17 h.
On the same counts, the results for `CNC(=O)[C@@H]1CN(Cc2cnc(Oc3ccc(C)cc3)nc2)CCO1` [Example 28] are -6.2%, -14.6% and over 2.17 h.
For `CNC(=O)[C@@H]1CN(Cc2cnc(Oc3ccc(F)cc3)nc2)CCO1` [Example 32], in that order: -7.7%, -13.5% and over 2.17 h.
For `CNC(=O)[C@@H]1CN(Cc2cnc(Oc3ccc(Cl)cc3F)nc2)CCO1` [Example 24], in that order: 5.8%, -3.7% and over 2.17 h.
For the molecule `CNC(=O)[C@@H]1CN(Cc2cnc(Oc3ccccc3F)nc2)CCO1` [Example 27], in data set [1], the inhibition at 1 µM is -3.1% and the inhibition at 5 µM was found to be 4.3%. For the same molecule, the half-life at 1 µM in data set [2] was over 2.17 h.
`CNC(=O)[C@@H]1CN(Cc2cnc(Oc3ccc(F)cc3C)nc2)CCO1` [Example 21]: in data set [1], the inhibition at 1 µM amounted to 1.3% and the inhibition at 5 µM came out at 3.6%. In data set [2], the half-life at 1 µM is over 2.17 h.
